Measurements: article PMC12736255, “Reinvestigating Pyrrol-2-One-Based Compounds: From Antimicrobial Agents to Promising Antitumor Candidates” (Pharmaceuticals, 2025)

Tests used:
Assay in all cases: NCI-60 single-dose screen
EKVX = format: cell-based, human; conditions: Homo sapiens, 10^–5 M, read-out: GI (%)
Excerpt: (§1) In the next step, all synthesized compounds were electronically submitted and accepted for testing to the National Cancer Institute (NCI) platform, for the single dose (10^−5 M) screening against a panel of 60 human tumor cell lines, representing leukemia, melanoma, and cancers of the lung, colon, central nervous system, ovary, kidney, prostate, and breast. The results are summarized in Table 2, with the best values highlighted in red (Figures S1–S14).

NCI-H226 = format: cell-based, human; conditions: Homo sapiens; NCI-H226, 10^–5 M; read-out: GI (%)
Excerpt: as §1

786-0 = format: cell-based; conditions: Homo sapiens; 786-0, 10^–5 M; read-out: GI (%)
Excerpt: as §1

A498 = format: cell-based; conditions: Homo sapiens; A498, 10^–5 M; read-out: GI (%)
Excerpt: as §1

A549/ATCC = format: cell-based; conditions: Homo sapiens, 10^–5 M, read-out: GI (%)
Excerpt: as §1

CAKI-1 = format: cell-based; conditions: Homo sapiens; CAKI-1, 10^–5 M; read-out: GI (%)
Excerpt: as §1

CCRF-CEM = format: cell-based; conditions: Homo sapiens, 10^–5 M, read-out: GI (%)
Excerpt: as §1

COLO205 = format: cell-based; conditions: Homo sapiens, COLO 205; COLO205, 10^–5 M; read-out: GI (%)
Excerpt: as §1

HCC-2998 = format: cell-based; conditions: Homo sapiens; HCC-2998, 10^–5 M; read-out: GI (%)
Excerpt: as §1

HCT-116 = format: cell-based; conditions: Homo sapiens; HCT-116, 10^–5 M; read-out: GI (%)
Excerpt: as §1

HCT-15 = format: cell-based; conditions: Homo sapiens; HCT-15, 10^–5 M; read-out: GI (%)
Excerpt: as §1

HL-60(TB) = format: cell-based; conditions: Homo sapiens, 10^–5 M, read-out: GI (%)
Excerpt: as §1

HOP-92 = format: cell-based; conditions: Homo sapiens; HOP-92, 10^–5 M; read-out: GI (%)
Excerpt: as §1

IGROV1 = format: cell-based; conditions: Homo sapiens, IGROV-1; IGROV1, 10^–5 M; read-out: GI (%)
Excerpt: as §1

K-562 = format: cell-based; conditions: Homo sapiens, K562; K-562, 10^–5 M; read-out: GI (%)
Excerpt: as §1

KM12 = format: cell-based; conditions: Homo sapiens; KM12, 10^–5 M; read-out: GI (%)
Excerpt: as §1

LOX IMVI = format: cell-based; conditions: Homo sapiens, 10^–5 M, read-out: GI (%)
Excerpt: as §1

MCF7 = format: cell-based; conditions: Homo sapiens; MCF7, 10^–5 M; read-out: GI (%)
Excerpt: as §1

MDA-MB-231/ATCC = format: cell-based; conditions: Homo sapiens, 10^–5 M, read-out: GI (%)
Excerpt: as §1

NCI-H23 = format: cell-based; conditions: Homo sapiens; NCI-H23, 10^–5 M; read-out: GI (%)
Excerpt: as §1

NCI-H322M = format: cell-based; conditions: Homo sapiens, 10^–5 M, read-out: GI (%)
Excerpt: as §1

NCI/ADR-RES = format: cell-based; conditions: Homo sapiens, 10^–5 M, read-out: GI (%)
Excerpt: as §1

OVCAR-3 = format: cell-based; conditions: Homo sapiens; OVCAR-3, 10^–5 M; read-out: GI (%)
Excerpt: as §1

OVCAR-5 = format: cell-based; conditions: Homo sapiens; OVCAR-5, 10^–5 M; read-out: GI (%)
Excerpt: as §1

OVCAR-8 = format: cell-based; conditions: Homo sapiens; OVCAR-8, 10^–5 M; read-out: GI (%)
Excerpt: as §1

PC-3 = format: cell-based; conditions: Homo sapiens, PC-3, PC-3, 10^–5 M; read-out: GI (%)
Excerpt: as §1

SF-539 = format: cell-based; conditions: Homo sapiens; SF-539, 10^–5 M; read-out: GI (%)
Excerpt: as §1

SK-MEL-28 = format: cell-based; conditions: Homo sapiens; SK-MEL-28, 10^–5 M; read-out: GI (%)
Excerpt: as §1

SK-MEL-2 = format: cell-based; conditions: Homo sapiens; SK-MEL-2, 10^–5 M; read-out: GI (%)
Excerpt: as §1

SK-MEL-5 = format: cell-based; conditions: Homo sapiens; SK-MEL-5, 10^–5 M; read-out: GI (%)
Excerpt: as §1

SK-OV-3 = format: cell-based; conditions: Homo sapiens; SK-OV-3, 10^–5 M; read-out: GI (%)
Excerpt: as §1

SN12C = format: cell-based; conditions: Homo sapiens, 10^–5 M, read-out: GI (%)
Excerpt: as §1

SNB-19 = format: cell-based; conditions: Homo sapiens; SNB-19, 10^–5 M; read-out: GI (%)
Excerpt: as §1

SNB-75 = format: cell-based; conditions: Homo sapiens; SNB-75, 10^–5 M; read-out: GI (%)
Excerpt: as §1

SW-620 = format: cell-based; conditions: Homo sapiens; SW-620, 10^–5 M; read-out: GI (%)
Excerpt: as §1

UACC-257 = format: cell-based; conditions: Homo sapiens; UACC-257, 10^–5 M; read-out: GI (%)
Excerpt: as §1

UACC-62 = format: cell-based; conditions: Homo sapiens; UACC-62, 10^–5 M; read-out: GI (%)
Excerpt: as §1

Row | Compound | inhibition at 10 µM (EKVX) | inhibition at 10 µM (NCI-H226) | inhibition at 10 µM (A498) | inhibition at 10 µM (A549/ATCC) | inhibition at 10 µM (CAKI-1) | inhibition at 10 µM (CCRF-CEM) | inhibition at 10 µM (COLO205) | inhibition at 10 µM (HCC-2998) | inhibition at 10 µM (HCT-116) | inhibition at 10 µM (HCT-15) | inhibition at 10 µM (HL-60(TB)) | inhibition at 10 µM (HOP-92) | inhibition at 10 µM (IGROV1) | inhibition at 10 µM (K-562) | inhibition at 10 µM (KM12) | inhibition at 10 µM (LOX IMVI) | inhibition at 10 µM (MCF7) | inhibition at 10 µM (MDA-MB-231/ATCC) | inhibition at 10 µM (NCI-H23) | inhibition at 10 µM (NCI-H322M) | also measured
1 | O=C1C(Nc2ccc(I)cc2)=CC(c2ccccc2)N1c1ccc(I)cc1 (stereo not shown) [3a] | 37% | 4% | 16% | 5% | 3% | 4% | 0% | 0% | 14% | 19% | 0% | 0% | 16% | 0% | 8% | 18% | 44% | 0% | 6% | 17% | inhibition at 10 µM (786-0): 17%; inhibition at 10 µM (NCI/ADR-RES): 0%; inhibition at 10 µM (OVCAR-3): 1%; inhibition at 10 µM (OVCAR-5): 0%; inhibition at 10 µM (OVCAR-8): 15%; inhibition at 10 µM (PC-3): 0%; inhibition at 10 µM (SF-539): 12%; inhibition at 10 µM (SK-MEL-28): 2%; inhibition at 10 µM (SK-MEL-2): 26%; inhibition at 10 µM (SK-MEL-5): 1%; inhibition at 10 µM (SK-OV-3): 8%; inhibition at 10 µM (SN12C): 23%; inhibition at 10 µM (SNB-19): 8%; inhibition at 10 µM (SNB-75): 15%; inhibition at 10 µM (SW-620): 0%; inhibition at 10 µM (UACC-257): 13%; inhibition at 10 µM (UACC-62): 0%
2 | O=C1C(Nc2ccc(I)cc2)=CC(c2ccc(O)cc2)N1c1ccc(I)cc1 (stereo not shown) [3g] | 64% | 47% | 48% | 22% | 41% | 94% | 42% | 53% | 61% | 84% | 75% | 66% | 27% | 78% | 80% | 44% | 83% | 44% | 45% | 20% | inhibition at 10 µM (NCI/ADR-RES): 44%; inhibition at 10 µM (OVCAR-3): 59%; inhibition at 10 µM (OVCAR-5): 24%; inhibition at 10 µM (OVCAR-8): 31%; inhibition at 10 µM (PC-3): 73%; inhibition at 10 µM (SF-539): 69%; inhibition at 10 µM (SK-MEL-28): 42%; inhibition at 10 µM (SK-MEL-2): 56%; inhibition at 10 µM (SK-MEL-5): 27%; inhibition at 10 µM (SK-OV-3): 25%; inhibition at 10 µM (SN12C): 60%; inhibition at 10 µM (SNB-19): 17%; inhibition at 10 µM (SNB-75): 77%; inhibition at 10 µM (SW-620): 56%; inhibition at 10 µM (UACC-257): 42%; inhibition at 10 µM (UACC-62): 33%
3 | COc1ccccc1C1C=C(Nc2ccc(I)cc2)C(=O)N1c1ccc(I)cc1 (stereo not shown) [3i] | 49% | 36% | 6% | 6% | 28% | 0% | 0% | 21% | 3% | 13% | 0% | 20% | 57% | 9% | 9% | 2% | 50% | 25% | 30% | 0% | inhibition at 10 µM (NCI/ADR-RES): 3%; inhibition at 10 µM (OVCAR-3): 46%; inhibition at 10 µM (OVCAR-5): 0%; inhibition at 10 µM (OVCAR-8): 17%; inhibition at 10 µM (PC-3): 15%; inhibition at 10 µM (SF-539): 31%; inhibition at 10 µM (SK-MEL-28): 12%; inhibition at 10 µM (SK-MEL-2): 44%; inhibition at 10 µM (SK-MEL-5): 4%; inhibition at 10 µM (SK-OV-3): 19%; inhibition at 10 µM (SN12C): 20%; inhibition at 10 µM (SNB-19): 0%; inhibition at 10 µM (SNB-75): 37%; inhibition at 10 µM (SW-620): 14%; inhibition at 10 µM (UACC-257): 13%; inhibition at 10 µM (UACC-62): 21%
